Where two headings read alike, the source gives them in different places. Bounds are passed on as bounds.

Here are results for 29 compounds from patent US11001561B2, “Pyrimidinone derivatives as SHP2 antagonists” (MERCK PATENT GMBH, priority 2019, dated 2021).

In assay [1] the test system is pERK1/2 in KYSE520 cells. The experiment in a line: p-Erk cellular assay in KYSE520 (Mesoscale). Format: cell-based. As to conditions: read-out: pERK1/2 in Cell KYSE520 IC50. The procedure: p-Erk Cellular Assay in KYSE520: The effect of SHP2 inhibitors on pERK level was assessed using phospho-specific antibody using Mesoscale quantification platform. For measuring change in pERK levels using mesoscale, 30,000 cells of KYSE520 cells were plated in 96-well tissue culture treated plate in 175 μl volume of media. After an overnight incubation at 37° C., various SHP2 inhibitors were added in different concentration to each well maintaining duplicate wells across plates and incubated with compounds for 2 h at 37° C. followed by a wash with ice cold PBS buffer. The cells were then lysed in lysis buffer and processed and analyzed for p-ERK/ERK as per manufacturer's instructions (Mesoscale discovery, cat No. […]-3).

Assay [2] concerns the target Full length SHP2 protein (Recombinant Human SHP-2) (Homo sapiens (Human), UniProt Q06124). The experiment in a line: SHP2 biochemical assay (DiFMUP substrate, activating peptide IRSI_2pY). As to conditions: activating peptide IRSI_2pY 140 nM, DiFMUP, 60 min.
Experimental: The inhibition of SHP2 by compounds of the invention was monitored using the surrogate substrate DiFMUP after protein activation by a peptide bearing two appropriately spaced phosphotyrosine. […] The generation of the DiFMU product by activated SHP2 was monitored through Fluorescence measurement with a PerkinElmer Envision reader. The inhibitor dose response curves were analyzed with Genedata Screener.
Where [3] appears, read: read-out: SHP-2 biochemical assay IC50.
Setting [4] is: SHP-2 biochemical assay IC50 (μM).

Full length SHP2 protein (Recombinant Human SHP-2), sequence (Q06124 2-593): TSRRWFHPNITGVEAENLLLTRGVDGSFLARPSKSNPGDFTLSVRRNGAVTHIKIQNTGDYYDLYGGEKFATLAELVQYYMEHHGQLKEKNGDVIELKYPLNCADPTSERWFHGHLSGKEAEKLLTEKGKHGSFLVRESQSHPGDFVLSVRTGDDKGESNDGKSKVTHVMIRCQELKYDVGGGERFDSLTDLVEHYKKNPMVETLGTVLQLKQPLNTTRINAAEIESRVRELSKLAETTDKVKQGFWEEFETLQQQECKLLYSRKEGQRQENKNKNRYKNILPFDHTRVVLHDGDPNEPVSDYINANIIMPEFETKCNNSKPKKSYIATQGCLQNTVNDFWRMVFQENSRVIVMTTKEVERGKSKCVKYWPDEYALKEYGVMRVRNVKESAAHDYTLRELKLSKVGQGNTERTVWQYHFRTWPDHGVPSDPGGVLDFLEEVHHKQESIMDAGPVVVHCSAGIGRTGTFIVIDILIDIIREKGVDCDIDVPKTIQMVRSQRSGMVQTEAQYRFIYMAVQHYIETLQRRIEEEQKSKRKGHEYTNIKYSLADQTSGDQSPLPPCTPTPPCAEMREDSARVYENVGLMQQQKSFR

For `Cc1nc(N2CCC3(CC2)Cc2ccccc2[C@H]3N)cc(=O)n1-c1cccc(Cl)c1Cl` (single isomer, unassigned) [Compound 119b], the IC50 in assay [1] (Homo sapiens, KYSE-520, 2 h) was found to be 5 nM; in assay [2] (setting [3]), 0.0008 µM.

Take `Cc1c(N2CCC3(CC2)Oc2cnccc2[C@@H]3N)nc(C)n(-c2cccc(Cl)c2Cl)c1=O` (single isomer, unassigned) [Compound 80b]: the values for the IC50 in assay [1] (2 h) and in assay [2] (setting [4]) were 16000 nM and > 10 µM, respectively.

`Cc1c(N2CCC3(CCC[C@H]3N)CC2)nc(C)n(-c2cccc(Cl)c2Cl)c1=O` [Compound 67b, (3M)-6-[(1R)-1-amino-8-azaspiro[4.5]decan-8-yl]-3-(2,3-dichlorophenyl)-2,5-dimethyl-3,4-dihydropyrimidin-4-one]: the values for the IC50 in assay [1] (2 h) and in assay [2] (setting [3]) were 198 nM and 0.041 µM, respectively.

`Cc1c(N2CCC3(CC2)Cc2ccccc2[C@H]3N)nc(C)n(-c2ccc(F)c(Cl)c2Cl)c1=O` [Compound 109, 6-((1S)-1-amino-1,3-dihydrospiro[indene-2,4′-piperidin]-1′-yl]-3-(2,3-dichloro-4-fluorophenyl)-2,5-dimethyl-3,4-dihydropyrimidin-4-one]: the IC50 stood at 4 nM in assay [1] (Homo sapiens, KYSE-520, 2 h) and 0.002 µM in assay [2] (setting [3]).

Regarding `Cc1c(N2CCC3(CC2)Oc2ncccc2[C@@H]3N)nc(C)n(-c2cccc(Cl)c2Cl)c1=O` [Compound 79b, (3M)-6-[(3S)-3-amino-3H-spiro[furo[2,3-b]pyridine-2,4′-piperidin]-1′-yl]-3-(2,3-dichlorophenyl)-2,5-dimethylpyrimidin-4-one], the IC50 is 102 nM in assay [1] (Homo sapiens, KYSE-520, 2 h) and 0.006 µM in assay [2] (setting [4]).

Regarding `Cc1nc(N2CCC3(CCC[C@H]3N)CC2)cc(=O)n1-c1cccc(Cl)c1Cl` [Compound 27, 6-{(R)-1-amino-8-azaspiro[4.5]decan-8-yl}-3-(2,3-dichlorophenyl)-2-methyl-3,4-dihydropyrimidin-4-one], the IC50 in assay [1] (Homo sapiens, KYSE-520, 2 h) turned out to be 239 nM; in assay [2] (setting [3]), 0.051 µM.

`Cc1nc(N2CCC3(CC2)CO[C@@H](C)[C@H]3N)nc(=O)n1-c1cccc(Cl)c1Cl` (single isomer, unassigned) [Compound 37a]: the IC50 stood at 11300 nM in assay [1] (Homo sapiens, KYSE-520, 2 h) and 1.1 µM in assay [2] (setting [3]).

In the case of `Cc1c(N2CCC3(CC2)CO[C@@H](C)[C@H]3N)nc(C)n(-c2cccc(Cl)c2Br)c1=O` [Compound 97, 6-((3S,4S)-4-Amino-3-methyl-2-oxa-8-aza-spiro[4.5]dec-8-yl)-3-(2-bromo-3-chloro-phenyl)-2,5-dimethyl-3H-pyrimidin-4-one], the IC50 in assay [1] (Homo sapiens, KYSE-520, 2 h) came to 1300 nM; in assay [2] (setting [3]), 0.078 µM.

Consider `Cc1c(F)ccc(-n2c(C)nc(N3CCC4(CC3)Cc3ccccc3[C@H]4N)c(C)c2=O)c1Cl` [Compound 110, 6-[(1S)-1-amino-1,3-dihydrospiro[indene-2,4′-piperidin]-1′-yl]-3-(2-chloro-4-fluoro-3-methylphenyl)-2,5-dimethyl-3,4-dihydropyrimidin-4-one], for which the IC50 in assay [1] (Homo sapiens, KYSE-520, 2 h) amounted to 7 nM; in assay [2] (setting [3]), 0.002 µM.

With `Cc1c(N2CCC3(CC2)C[C@H](C)C[C@H]3N)nc(C)n(-c2cccc(Cl)c2Cl)c1=O` (atropisomer, axis not shown) [Compound 111a, (3M)-6-[(1R,3S)-1-amino-3-methyl-8-azaspiro[4.5]decan-8-yl]-3-(2,3-dichlorophenyl)-2,5-dimethyl-3,4-dihydropyrimidin-4-one], the IC50 was found to be 720 nM in assay [1] (Homo sapiens, KYSE-520, 2 h) and 0.093 µM in assay [2] (setting [3]).

For the compound `[2H]C([2H])([2H])c1c(N2CCC3(CC2)CO[C@@H](C)[C@H]3N)nc(C)n(-c2cccc(Cl)c2Cl)c1=O` [Compound 63, 6-[(3S,4S)-4-amino-3-methyl-2-oxa-8-azaspiro[4.5]decan-8-yl]-3-(2,3-dichlorophenyl)-5-(^2H3)methyl-2-methyl-3,4-dihydropyrimidin-4-one], the IC50 in assay [1] (2 h) was found to be 467 nM; in assay [2] (setting [4]) it was 0.039 µM.

With `Cc1c(N2CCC3(CCC3N)CC2)nc(C)n(-c2cccc(Cl)c2Cl)c1=O` (stereo not shown) [Compound 82, 6-1-amino-7-azaspiro[3.5]nonan-7-yl-3-(2,3-dichlorophenyl)-2,5-dimethyl-3,4-dihydropyrimidin-4-one], the IC50 stood at 6630 nM in assay [1] (Homo sapiens, KYSE-520, 2 h) and 0.56 µM in assay [2] (setting [3]).

For `Cc1nc(N2CCC(C)(N)CC2)cc(=O)n1-c1cccc(Cl)c1Cl` (single isomer, unassigned) [Compound 2b, (3M)-6-(4-amino-4-methylpiperidin-1-yl)-3-(2,3-dichlorophenyl)-2-methyl-3,4-dihydropyrimidin-4-one], the IC50 in assay [1] (Homo sapiens, KYSE-520, 2 h) worked out at 4250 nM.

As to `Cc1c(N2CCC3(CC2)Cc2ccccc2[C@H]3N)nc(C)n(-c2cccc(C#N)c2Cl)c1=O` [Compound 108, 3-4-[(1S)-1-amino-1,3-dihydrospiro[indene-2,4′-piperidin]-1′-yl]-2,5-dimethyl-6-oxo-1,6-dihydropyrimidin-1-yl-2-chlorobenzonitrile], the IC50 came out at 32 nM in assay [1] (Homo sapiens, KYSE-520, 2 h) and 0.007 µM in assay [2] (setting [4]).

With `[2H]C([2H])([2H])c1c(N2CCC3(CC2)CO[C@@H](C)[C@H]3N)nc(C)n(-c2cccc(Cl)c2Cl)c1=O` (single isomer, unassigned) [Compound 63b], the figures for the IC50 in assay [1] (2 h) and in assay [2] (setting [4]) were 177 nM and 0.015 µM, respectively.

In the case of `Cc1nc(N2CCC(N)(CCO)CC2)cc(=O)n1-c1cccc(Cl)c1Cl` [Compound 26, 6-[4-amino-4-(2-hydroxyethyl)piperidin-1-yl]-3-(2,3-dichlorophenyl)-2-methyl-3,4-dihydropyrimidin-4-one], the IC50 in assay [1] (Homo sapiens, KYSE-520, 2 h) came to 2290 nM; in assay [2] (setting [3]), 0.38 µM.

Consider `Nc1nc(N2CCC3(CC2)Cc2ccccc2[C@H]3N)cc(=O)n1-c1cccc(Cl)c1Cl` [Compound 118, 2-amino-6-[(3S)-3-amino-1,3-dihydrospiro[indene-2,4′-piperidin]-1′-yl]-3-(2,3-dichlorophenyl)-3,4-dihydropyrimidin-4-one], for which the IC50 was found to be 51 nM in assay [1] (Homo sapiens, KYSE-520, 2 h) and 0.016 µM in assay [2] (setting [3]).

As to `Cc1c(N2CCC3(CC2)CO[C@@H](C)[C@H]3N)nc(N)n(-c2cccc(Cl)c2Cl)c1=O` [Compound 116, 2-Amino-6-((3S,4S)-4-amino-3-methyl-2-oxa-8-aza-spiro[4.5]dec-8-yl)-3-(2,3-dichloro-phenyl)-5-methyl-3H-pyrimidin-4-one], the IC50 was found to be 2190 nM in assay [1] (Homo sapiens, KYSE-520, 2 h) and 0.2 µM in assay [2] (setting [3]).

As for `Cc1c(N2CCC3(CC2)c2ncccc2C[C@H]3N)nc(C)n(-c2cccc(Cl)c2Cl)c1=O` [Compound 75, (3M)-6-[(6R)-6-amino-5,6-dihydrospiro[cyclopenta[b]pyridine-7,4′-piperidin]-1′-yl]-3-(2,3-dichlorophenyl)-2,5-dimethyl-3,4-dihydropyrimidin-4-one], the IC50 in assay [1] (2 h) turned out to be 824 nM.

As for `Cc1nc(N2CCC(C)(N)CC2)cc(=O)n1-c1cccc(Cl)c1Cl` [Compound 2, 6-(4-amino-4-methylpiperidin-1-yl)-3-(2,3-dichlorophenyl)-2-methyl-3,4-dihydropyrimidin-4-one], in assay [1] (Homo sapiens, KYSE-520, 2 h), the IC50 amounted to 5570 nM.

Regarding `Cc1c(N2CCC3(CC2)CC3N)nc(C)n(-c2cccc(Cl)c2Cl)c1=O` (stereo not shown) [Compound 89, 6-1-amino-6-azaspiro[2.5]octan-6-yl-3-(2,3-dichlorophenyl)-2,5-dimethyl-3,4-dihydropyrimidin-4-one], the IC50 in assay [2] (setting [3]) is 1.3 µM.

As to `Cc1c(N2CCCC(C)(CN)CC2)nc(C)n(-c2cccc(Cl)c2Cl)c1=O` (stereo not shown) [Compound 107, (3M)-6-[4-(aminomethyl)-4-methylazepan-1-yl]-3-(2,3-dichlorophenyl)-2,5-dimethyl-3,4-dihydropyrimidin-4-one], the IC50 in assay [2] (setting [3]) came out at 1.2 µM.

On to `Cc1c(N2CCc3cc(N)ccc3C2)nc(C)n(-c2cccc(Cl)c2Cl)c1=O` [Compound 83, 6-(6-amino-1,2,3,4-tetrahydroisoquinolin-2-yl)-3-(2,3-dichlorophenyl)-2,5-dimethyl-3,4-dihydropyrimidin-4-one], for which the IC50 in assay [2] (setting [3]) was > 10 µM.

On to `COc1ccc(-n2c(C)nc(N3CCC4(CC3)CO[C@@H](C)[C@H]4N)c(C)c2=O)c(Cl)c1Cl` [Compound 98, 6-((3S,4S)-4-Amino-3-methyl-2-oxa-8-aza-spiro[4.5]dec-8-yl)-3-(2,3-dichloro-4-methoxy-phenyl)-2,5-dimethyl-3H-pyrimidin-4-one], for which, in assay [2] (setting [3]), the IC50 came to 0.5 µM.

For `Cc1nc(N2CCC3(CC2)CC3CN)cc(=O)n1-c1cccc(Cl)c1Cl` (stereo not shown) [Compound 13, 6-[1-(aminomethyl)-6-azaspiro[2.5]octan-6-yl]-3-(2,3-dichlorophenyl)-2-methyl-3,4-dihydropyrimidin-4-one], in assay [2] (setting [3]), the IC50 came to 4.3 µM.

Take `Cc1c(N2CCC3(CC2)CO[C@@H](C)[C@H]3N)nc(C)n(-c2cccc3ncsc23)c1=O` [Compound 84, 6-((3S,4S)-4-Amino-3-methyl-2-oxa-8-aza-spiro[4.5]dec-8-yl)-3-benzothiazol-7-yl-2,5-dimethyl-3H-pyrimidin-4-one]: the IC50 in assay [2] (setting [3]) is > 10 µM.

For the compound `Cc1nc(N2CC3CCC(C2)N3)cc(=O)n1-c1cccc(Cl)c1Cl` [Compound 56, 6-3,8-diazabicyclo[3.2.1]octan-3-yl-3-(2,3-dichlorophenyl)-2-methyl-3,4-dihydropyrimidin-4-one], the IC50 in assay [2] (setting [3]) is 5.2 µM.

Regarding `Cc1nc(N2CCC3(CC2)CO[C@@H](C)[C@H]3N)cc(=O)n1-c1c(F)ccc(Cl)c1Cl` (single isomer, unassigned) [Compound 32a], the IC50 in assay [2] (setting [3]) is > 10 µM.

Regarding `Cc1nc(N2CCC(C)([C@H](O)CN)CC2)cc(=O)n1-c1cccc(Cl)c1Cl` (racemic) [Compound 57b, (+/−)-(3P)-6-{4-[(1S)-2-amino-1-hydroxyethyl]-4-methylpiperidin-1-yl}-3-(2,3-dichlorophenyl)-2-methyl-3,4-dihydropyrimidin-4-one], the IC50 in assay [2] (setting [4]) was determined as 3 µM.
